{"source": "paper PMC5623904", "about": "“Structural investigation of nucleophosmin interaction with the tumor suppressor Fbw7γ” (Oncogenesis, 2017)", "type_in_all_cases": "binding", "key": {"[1]": {"biological_target": "T1, Nter-NPM1 (residues 16-123) (Homo sapiens, UniProt P06748)", "T1 construct": "inferred from pET28a NdeI/BamHI cloning and HisTrap purification) (N); made in house; host or cells: Escherichia coli BL21(DE3)", "T1 sequence (P06748 16-123)": "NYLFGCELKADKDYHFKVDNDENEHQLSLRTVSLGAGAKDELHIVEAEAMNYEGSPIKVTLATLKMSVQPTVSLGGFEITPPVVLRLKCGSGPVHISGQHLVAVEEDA", "experiment": "Equilibrium fluorescence titration of dansylated peptide with Nter-NPM1", "details": "for Nter-NPM1 KD: wild-type Nter-NPM1, N-terminally dansylated peptide 5 μM, protein 0 to 200/400 μM, sodium phosphate 20 mM pH 7.2, 25 °C, fluorescence ex 330 nm, triplicate, ±s.d., Ni = no interaction", "experimental": "(§1) All experiments were performed at 25 °C in sodium phosphate buffer 20 mM pH 7.2, or in sodium phosphate buffer 20 mM plus 100 mM NaCl pH 7.2 (which sets ionic strength to 150 mM), using a FluoroMax-4 spectrofluorometer (Jobin Yvon, Edison, NJ, USA), equipped with a water bath apparatus. Fbw7γ and CENP-W peptides, functionalized with a dansyl (5-dimetilamminonaftalen-1-sulphonyl) group at their N terminus, were purchased from JPT (Germany). Tat peptide was synthesized employing the solid phase method following standard Fmoc strategies and labeled with dansyl fluorophore at its N terminus. Crude product was purified by RP-HPLC applying a linear gradient of 0.1% TFA CH3CN in 0.1% TFA water from 5% to 65% over 12 min using a semi-preparative 2.2 × 5 cm C18 column at a flow rate of 20 ml/min. Purity and identity were confirmed by LC–MS analysis.\n(§2) Titration experiments were conducted with an excitation wavelength of 330 nm while the fluorescence emission spectra were collected in the range between 350 and 650 nm. Titrations were performed at constant peptide concentration (5 μM) and varying protein concentrations (from 0 to 200/400 μM). Titrations were performed in triplicate and data, analyzed with the Graphpad Prism software (https://www.graphpad.com/scientific-software/prism/), were reported as dissociation constant±s.d.\n(§3) Equilibrium binding curves were fitted to the standard quadratic equation: […]\n(§4) where F is the observed fluorescence signal, n and [A]0 are the total concentration of non-varied and varied species, respectively, and KD is the equilibrium dissociation constant. B and C are constants taking into account the total fluorescence change and fluorescence at [A]0=0, respectively, and k is a term describing the slope of the curve at high protein concentration. Whenever possible, under pseudo first-order conditions, the equation 1 was simplified to: […]"}, "[2]": {"biological_target": "T2, Nter-NPM1 D36A-E39A-E93A (Homo sapiens, UniProt P06748, D36A/E39A/E93A)", "T2 construct": "inferred from pET28a NdeI/BamHI cloning and HisTrap purification) (N); made in house; host or cells: Escherichia coli BL21(DE3)", "T2 sequence (P06748 16-123 D36A/E39A/E93A)": "as the sequence (P06748 16-123) above, with D21A, E24A, E78A counted along it", "experiment": "Equilibrium fluorescence titration, Nter-NPM1 triple mutant", "details": "dansylated peptide 5 μM; sodium phosphate 20 mM pH 7.2, 25 °C; triplicate, ±s.d.; read-out: KD, D36A-E39A-E93A", "experimental": "(§5) Nter-NPM1 mutants were obtained by site-directed mutagenesis using the Quickchange II Lightning Site-Directed Mutagenesis kit (Stratagene, La Jolla, CA, USA), following manufacturer’s instructions. Oligonucleotides used for PCR were obtained from Primm Biotech (Milan, Italy). Forward oligonucleotides used are reported in Supplementary Table 2.\nas §1, §2, §3, §4"}, "[3]": {"biological_target": "T3, Nter-NPM1 D36A-E37A-E39A-E93A-E121A (Homo sapiens, UniProt P06748, D36A/E121A/E37A/E39A/E93A)", "T3 construct": "inferred from pET28a NdeI/BamHI cloning and HisTrap purification) (N); made in house; host or cells: Escherichia coli BL21(DE3)", "T3 sequence (P06748 16-123 D36A/E37A/E39A/E93A/E121A)": "as the sequence (P06748 16-123) above, with D21A, E22A, E24A, E78A, E106A counted along it", "experiment": "Equilibrium fluorescence titration, Nter-NPM1 quintuple mutant", "details": "dansylated peptide 5 μM; sodium phosphate 20 mM pH 7.2, 25 °C; triplicate, ±s.d.", "experimental": "as §5, §1, §2, §3, §4"}, "[4]": {"biological_target": "T4, Nter-NPM1 D36A-E39A-E93A-E121A (Homo sapiens, UniProt P06748, D36A/E121A/E39A/E93A)", "T4 construct": "inferred from pET28a NdeI/BamHI cloning and HisTrap purification) (N); made in house; host or cells: Escherichia coli BL21(DE3)", "T4 sequence (P06748 16-123 D36A/E39A/E93A/E121A)": "as the sequence (P06748 16-123) above, with D21A, E24A, E78A, E106A counted along it", "experiment": "Equilibrium fluorescence titration, Nter-NPM1 quadruple mutant (E121A)", "details": "dansylated peptide 5 μM; sodium phosphate 20 mM pH 7.2, 25 °C; triplicate, ±s.d.", "experimental": "as §5, §1\nas §2, with “constant±s.d. […]” for “constant±s.d.”\nas §4, with “concentration.” for “concentration. Whenever possible, under pseudo first-order conditions, the equation 1 was simplified to:”"}, "[5]": {"biological_target": "T5, Nter-NPM1 D36A-E37A-E39A-E93A (Homo sapiens, UniProt P06748, D36A/E37A/E39A/E93A)", "T5 construct": "inferred from pET28a NdeI/BamHI cloning and HisTrap purification) (N); made in house; host or cells: Escherichia coli BL21(DE3)", "T5 sequence (P06748 16-123 D36A/E37A/E39A/E93A)": "as the sequence (P06748 16-123) above, with D21A, E22A, E24A, E78A counted along it", "experiment": "Equilibrium fluorescence titration, Nter-NPM1 quadruple mutant (E37A)", "details": "dansylated peptide 5 μM; sodium phosphate 20 mM pH 7.2, 25 °C; triplicate, ±s.d.; read-out: KD, D36A-E37A-E39A-E93A", "experimental": "as §5, §1, §2, §3, §4"}}, "data": [{"compound": "DDEAQTLAKFVLSQK [Unrelated long, reference compound]", "values": [{"measurement": "Nter-NPM1 KD", "setting": "[1]", "result": "Ni"}, {"measurement": "Nter-NPM1 KD", "setting": "[1]; listed as unrelated long", "result": "No interaction"}]}, {"compound": "VLSQK [Unreleted short, reference compound]", "values": [{"measurement": "Nter-NPM1 KD", "setting": "[1]", "result": "Ni"}, {"measurement": "Nter-NPM1 KD", "setting": "[1]; listed as unrelated short", "result": "No interaction"}]}, {"compound": "C[C@H](NS(=O)(=O)c1cccc2c(N(C)C)cccc12)C(=O)NCC(=O)N[C@@H](CCCNC(=N)N)C(=O)N[C@@H](CCCCN)C(=O)N[C@@H](CCCCN)C(=O)N[C@@H](CCCNC(=N)N)C(=O)N[C@@H](CCCNC(=N)N)C(=O)N[C@@H](CCC(N)=O)C(=O)N[C@@H](CCCNC(=N)N)C(=O)N[C@@H](CCCNC(=N)N)C(=O)N[C@@H](CCCNC(=N)N)C(=O)N1CCC[C@H]1C(=O)N1CCC[C@H]1C(=O)N[C@@H](CCC(N)=O)C(=O)O", "note": "[Tat*]", "values": [{"measurement": "Kd", "setting": "[2]", "result": "11.1 ± 2.1", "unit": "µM"}, {"measurement": "Kd", "setting": "[3]", "result": "643 ± 70.8", "unit": "µM"}, {"measurement": "Kd", "setting": "[1]; SD, read-out: Nter-NPM1 KD", "result": "2.4 ± 0.5", "unit": "µM"}, {"measurement": "Kd", "setting": "[4]", "result": "63.8 ± 5", "unit": "µM"}, {"measurement": "Kd", "setting": "[5]", "result": "57.4 ± 7", "unit": "µM"}]}]}
